Patent publication EP0111809A1, “Pyrazolo(4.3-b)(1.4)oxazines, processes for their preparation and their use as medicaments” (Troponwerke GmbH & Co. KG, priority 1982, dated 1984)

Tests used:
[1] = system: Lipoxygenase in PMN-Leukozyten; experiment: Inhibition of lipoxygenase in PMN leukocytes (release of 5-HETE); type: cell-based; conditions: species (human or rabbit) not given
Description: Der Nachweis der lipoxygenasehemmenden Eigenschaften der neuen, erfindungsgemäßen Verbindungen erfolgt analog der Methode von Bailey et al., J. Biol. Chem. 255, 5996, 1980 und nach Blackwell and Flower, Prostaglandins 16, 417, 1978. Bei dieser Testmethode wird der Metabolismus radioaktiv markierter Arachidonsäure an gewaschenen Humanthrombozyten untersucht. Bei diesem in-vitro-Test werden die radioaktiv markierten Metaboliten aus dem Reaktionsansatz extrahiert und dünnschichtchromatographisch getrennt. Das Autoradiogramm wird mit Dünnschichtscanner ausgewertet. Bei diesen Testbedingungen werden die markierten Metaboliten von der nicht umgesetzten Arachidonsäure getrennt und sind anschließend auszuwerten. Die Verteilung der Radioaktivität auf die während der Metabolisierung gebildeten Cyclooxygenaseprodukte Thromboxan B2 (TXB2) und 12-Hydroxy-5.8.10-heptadekatriensäure (HHT) bzw. das Lipoxygenaseprodukt 12-Hydroxy-5.8.11.14-eikosa- tetraensäure (HETE) unter dem Einfluß der Inhibitoren stellt ein Maß für die Hemmung der Enzyme dar.
Analog dem o.a. Test lassen sich die lipoxygenasehemmenden Eigenschaften der neuen, erfindungsgemäßen Verbindungen auch an Leukozyten nachweisen. Die polymorphkernigen Leukozyten des Menschen und des Kaninchens metabolisieren die Arachidonsäure zu 5-Hydroxy-5.8.11.14-eikosatetraensäure (5-HETE) und Leukotrien B4 (5S, 12R-Dihydroxy-6 cis, 8.10 trans, 14 ciseikosatetraensäure). Die Hemmung der Freisetzung von 5-HETE und Leukotrien B4 aus den Leukozyten stellt ein Maß für den lipoxygenasehemmenden Effekt der neuen, erfindungsgemäßen Verbindungen dar (vgl. Tabelle A).
Der Test mit den Humanleukozyten wird nach Borgeat and Samuelsson (J.Biol. Chem. 254, 2643, 1979 und Proc. Natl. Acad. Sci. U.S.A. 76, 2148, 1979), mit Kaninchenleukozyten nach Walker and Parish (Intern. Archs. Allergy Appl. Immun. 66, 83, 1981) durchgeführt.

Hyperalgesie = experiment: Randall-Selitto hyperalgesia test, oral administration; type: in vivo; conditions: Hemmung der Hyperalgesie nach Randall-Selitto nach oraler Gabe
Description: Die erfindungsgemäßen Verbindungen sind auch in vivo wirksam im Hyperalgesie-Test nach Randall-Selitto, vgl. Tabelle B (Randall, L.O., Selitto, J., Arch. Int. Pharmakodyn, 111, 209-219, 1957).

Carrageenanödembildung = experiment: Carrageenan-induced oedema model, oral administration; type: in vivo; conditions: Hemmung der Carrageenanödembildung nach oraler Gabe
Description: Die erfindungsgemäßen Verbindungen sind auch in-vivo wirksam. Diese Wirkung wird durch die Messung der Hemmung der Leukozytenmigration nach an sich bekannten Methoden nachgewiesen (vgl. Higgs et al., Biochemical Pharmacology 28, 1959, (1979) und Eur. J. Pharmacol. 66,81 (1981)). Die erfindungsgemäßen Verbindungen reduzieren auch die ödembildung im Carrageenan-Entzündungsmodell, (vgl. Tabelle C) und hemmen die Metastasierung von B-16 Melanom (nach Honn, et.al. Science 212, 1981).

2-Methyl-5-phenylpyrazolo[4.3-b][1.4]oxazin [Beispiel 2]
Minimale Konzentration (mol/l) für die Hemmung der Lipoxygenase in PMN-Leukozyten (5-HETE) [1]: 5 . 10^-6 mol/l | DE50[mg/kg], oral (Hyperalgesie): 0,80 mg/kg | DE50[mg/kg], oral (Carrageenanödembildung): 10,3 mg/kg

CN1c2[nH]ncc2O[C@@H](c2ccccc2)[C@H]1c1ccccc1 (relative stereo) [Beispiel 3, cis-7-Methyl-5,6-diphenylpyrazolo[4.3-b][1.4]oxazin]
Minimale Konzentration (mol/l) für die Hemmung der Lipoxygenase in PMN-Leukozyten (5-HETE) [1]: 5 . 10^-6 mol/l | DE50[mg/kg], oral (Hyperalgesie): 1,23 mg/kg | DE50[mg/kg], oral (Carrageenanödembildung): 12,7 mg/kg

CN1C=COc2cn[nH]c21 [Beispiel 1, 7-Methylpyrazolo[4.3-b][1.4]oxazin]
Minimale Konzentration (mol/l) für die Hemmung der Lipoxygenase in PMN-Leukozyten (5-HETE) [1]: > 10^-5 mol/l | DE50[mg/kg], oral (Hyperalgesie): 19,7 mg/kg | DE50[mg/kg], oral (Carrageenanödembildung): 13,3 mg/kg

Cc1n[nH]c2c1OC(c1ccccc1)=C(c1ccccc1)N2C [Beispiel 4, 3,7-Dimethyl-5,6-diphenylpyrazolo[4.3-b][1.4]oxazin]
Minimale Konzentration (mol/l) für die Hemmung der Lipoxygenase in PMN-Leukozyten (5-HETE) [1]: 10^-5 mol/l | DE50[mg/kg], oral (Hyperalgesie): 7,7 mg/kg | DE50[mg/kg], oral (Carrageenanödembildung): 11,3 mg/kg

CCCc1n[nH]c2c1OC(c1ccccc1)=C(c1ccccc1)N2C [Beispiel 5, 7-Methyl-3-propyl-5,6-diphenylpyrazolo[4.3-b][1.4]oxazin]
Minimale Konzentration (mol/l) für die Hemmung der Lipoxygenase in PMN-Leukozyten (5-HETE) [1]: > 10^-5 mol/l | DE50[mg/kg], oral (Carrageenanödembildung): 14,2 mg/kg

CC(=O)n1nc(C)c2c1N(C)C(c1ccccc1)=C(c1ccccc1)O2 [Beispiel 6, 1-Acetyl-3,7-dimethyl-5.6-diphenylpyrazolo[4.3-b][1.4]-oxazin]
Minimale Konzentration (mol/l) für die Hemmung der Lipoxygenase in PMN-Leukozyten (5-HETE) [1]: 5 . 10^-6 mol/l | DE50[mg/kg], oral (Carrageenanödembildung): 2,5 mg/kg

CC(C)c1n[nH]c2c1OC(c1ccccc1)C(c1ccccc1)N2C (centres unmarked) [compound 7]
Minimale Konzentration (mol/l) für die Hemmung der Lipoxygenase in PMN-Leukozyten (5-HETE) [1]: 5 . 10^-6 mol/l

CN1CCOc2cn(Cc3ccc(Cl)c(Cl)c3)nc21 [compound 8]
Minimale Konzentration (mol/l) für die Hemmung der Lipoxygenase in PMN-Leukozyten (5-HETE) [1]: 10^-5 mol/l

CN1CC(c2ccccc2)Oc2cn(C)nc21 (centres unmarked) [compound 9]
Minimale Konzentration (mol/l) für die Hemmung der Lipoxygenase in PMN-Leukozyten (5-HETE) [1]: 10^-5 mol/l

CN1c2[nH]ncc2OC(c2ccccc2)C1c1ccccc1 (centres unmarked) [compound 10]
Minimale Konzentration (mol/l) für die Hemmung der Lipoxygenase in PMN-Leukozyten (5-HETE) [1]: 5.10^-6 mol/l
